From BindingDB's records for patent US20250188057 (Merck Sharp & Dohme, 2025)

Target: T1, Ceramide glucosyltransferase (Homo sapiens, UniProt Q16739)
T1 sequence (Q16739 whole entry): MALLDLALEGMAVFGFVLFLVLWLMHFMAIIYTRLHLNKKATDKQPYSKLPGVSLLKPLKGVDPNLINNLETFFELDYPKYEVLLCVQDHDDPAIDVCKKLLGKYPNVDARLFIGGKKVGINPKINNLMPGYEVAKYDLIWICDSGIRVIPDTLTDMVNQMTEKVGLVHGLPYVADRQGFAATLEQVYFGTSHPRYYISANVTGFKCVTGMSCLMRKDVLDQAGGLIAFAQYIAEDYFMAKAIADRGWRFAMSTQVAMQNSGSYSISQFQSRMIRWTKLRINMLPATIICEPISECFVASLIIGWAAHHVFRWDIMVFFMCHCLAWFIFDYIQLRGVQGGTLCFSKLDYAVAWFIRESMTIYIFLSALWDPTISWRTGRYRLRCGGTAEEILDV
Assay: UDP-Glo Glucosylceramide Synthase Biochemical Assay
Description: Using Promega's UDP-Glo™ Glycosyltransferase assay kit (Promega Corporation, Madison, WI, USA (Promega)), GCS activity was indirectly measured by detecting the amount of UDP produced. An aliquot of GCS enzyme (1.5 μg crude golgi preparation, total protein) and titrated test compound were aliquoted to each well and incubated for 30 minutes at room temperature. […] An equivalent volume of substrate mixture was then added to each well. Following a 20 h incubation at room temperature to allow for GCS turnover of substrate, an equal volume of UDP detection reagent (Promega) was added to each well and incubated for an additional 75 minutes at room temperature to simultaneously convert the accumulated UDP product into ATP and generate light in a luciferase reaction.

IC50: 3.15 µM
Structure (SMILES): CN1C(=O)CC(COc2nc(C3CC3)ncc2C#N)C1c1cccc(Cl)c1 (stereo unspecified) [US20250188057, Compound 101]
